Results from PubChem BioAssay AID2060611 (Molecular Pharmacology Branch, DTP, NCI, 2025).
“And” between values parts separate entries of the source, which are not always exact repeats. Identical values can stand only once.

System: 628569-122-R-J1-PDC complex spheroid viability
Test: Anticancer human tumor 628569-122-R-J1-PDC patient-derived head and neck squamous carcinoma cell line growth inhibition [CLK]
Conditions: for viability, T/C: stronger effect = lower value
From the text: A high-throughput screen of multi-cell type tumor spheroids was designed to identify active combinations of […] and targeted small molecules. Complex spheroids include a stromal component modeled by human endothelial cells (HUVEC) and fibroblasts modeled by human mesenchymal stem cells (MSCs). The concentration ranges selected for each drug and investigational agent were based upon clinically achievable concentrations if the clinical Cmax of the agent was known.
Compounds. The drugs and investigational agents: cirtuvivint (SM08502; NSC835563), CC-671 (NSC850746), vemurafenib (NSC761431), tapotoclax (NSC804041), sotorasib (NSC818433), adagrasib (NSC831453), MRTX-1133 (NSC836407), BAY2416964 (NSC825713), copanlisib (NSC816437), inavolisib (NSC800729), abemaciclib (NSC768073), osimertinib (NSC779217), entinostat (NSC756642), eltanexor (KPT-8602, NSC794443), venetoclax (NSC766270), ceralasertib (NSC777638), bortezomib (NSC756655), olaparib (NSC753686), talazoparib (NSC767125), alisertib (NSC759677), peposertib (NSC802822), gemcitabine (NSC613327), 5-fluorouracil (NSC19893), SN-38 (NSC673596), oxaliplatin (NSC266046), paclitaxel (NSC125973), and doxorubicin (NSC123127), were obtained from the National Cancer Institute (NCI) Developmental Therapeutics Program Chemical Repository. The FDA-approved anticancer drug set is available from the Developmental Therapeutics Program at https://dtp.cancer.gov/organization/dscb/obtaining/available plates.htm. […] The stock solutions were prepared in dimethyl sulfoxide (DMSO, Sigma-Aldrich, St. Louis, MO, cat. D2650), except for the platinum complexes which were prepared in saline (Quality Biological, Gaithersburg, MD, cat. 114-055-101), at 800-fold the tested concentration and stored at -70 degrees C prior to their use. All drugs and investigational agents were tested over a range starting from a high concentration at or near the clinical Cmax and decreasing in half-log increments. If the clinical Cmax for an agent had not been determined, the highest concentration tested was 10 microM.
Cell Culture. All cells were maintained in an incubator at 37 degrees C and 5% CO2 with 95% humidity. The PDC lines were cultured according to standard operating procedures established by the NCI PDMR. Briefly, all PDCs were thawed and cultured in Matrigel-coated flasks prepared with a working solution of 1X Ham's F-12 nutrient mix, without supplementation (Invitrogen, Waltham, MA, cat. 11765054), 100 U/mL penicillin-streptomycin (Invitrogen, cat. 15140122), and 2.5% Matrigel (Corning Inc., Corning, NY, cat. 354248) for the first three passages. The 947758-054-R-J2-PDC line was cultured in 6B/Colon 1A media, which includes advanced DMEM/F-12 (Thermo Fisher Scientific, cat. 12634028), 10 mM HEPES (Thermo Fisher Scientific, cat. 15630080), 1X GlutaMAX supplement (Thermo Fisher Scientific, cat. 35050061), 0.1 mg/mL primocin (InvivoGen, cat. ant-pm-2), 10% defined fetal bovine serum, heat inactivated (HyClone Laboratories Inc., cat. SH30070.03HI), 1.25 mM N-Acetyl-L-cysteine (Sigma-Aldrich, cat. A9165), 10 mM nicotinamide (Sigma-Aldrich, cat. N0636), 1X B-27 supplement (Thermo Fisher Scientific, cat. 17504044), 1X N-2 supplement (Thermo Fisher Scientific, cat. 17502048), and 10 microM Y-27632 dihydrochloride (Tocris Bioscience, cat. 1254). The 876862-298-R-J1-PDC was cultured in 6E media, which includes all 6B/Colon 1A media components plus 50% L-WRN conditioned media (ATCC, cat. CRL-3276), 50 ng/mL recombinant human EGF recombinant protein (hEGF; Thermo Fisher Scientific, cat. PHG0311), 10 ng/mL recombinant human fibroblast growth factor 10 (hGFG-10; PeproTech, cat. 100-26), 1 ng/mL recombinant human fibroblast growth factor 2 (hFGF-2; PeproTech, cat. 100-18B), and 1 µM prostaglandin E2 (PGE2; Tocris, cat. 2296). The 227483-062-R1-J1-PDC line was cultured in Panc media, containing all 6E components except hFGF-2, with the addition of 500 nM SB-431542 (Selleckchem, cat. S1067) and 10 nM gastrin (Tocris, cat. 3006). […]
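Also: spheroids exposed to agents for seven days before readout.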
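For viability, T/C in this document: 100% = DMSO vehicle control viability.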

Cn1ncnc1[C@H]1c2n[nH]c(=O)c3cc(F)cc(c23)N[C@@H]1c1ccc(F)cc1 + CN1CCN(c2cc(C(=O)Nc3cc4cc(-c5cnn(C)c5)ccc4cn3)ccn2)CC1
IC50 (curve of first compound, second compound 0.0316 µM): > 100 nM
IC50 (curve of first compound, second compound 0.1 µM): 69 nM
IC50 (curve of first compound, second compound 0.316 µM): < 0.316 nM
IC50 (curve of first compound, second compound 1 µM): < 0.316 nM
IC50 (curve of first compound, second compound 3.16 µM): < 0.316 nM
IC50 (curve of first compound, second compound 10 µM): < 0.316 nM
viability, T/C (second compound 0.0316 µM, first compound 0.000316 µM): 91.6%
viability, T/C (second compound 0.0316 µM, first compound 0.001 µM): 98.2%
viability, T/C (second compound 0.0316 µM, first compound 0.00316 µM): 89.9%
viability, T/C (second compound 0.0316 µM, first compound 0.01 µM): 92.5%
viability, T/C (second compound 0.0316 µM, first compound 0.0316 µM): 82.7%
viability, T/C (second compound 0.0316 µM, first compound 0.1 µM): 58.4%
viability, T/C (second compound 0.1 µM, first compound 0.000316 µM): 58.3%
viability, T/C (second compound 0.1 µM, first compound 0.001 µM): 68.8%
viability, T/C (second compound 0.1 µM, first compound 0.00316 µM): 69.9%
viability, T/C (second compound 0.1 µM, first compound 0.01 µM): 62.5%
viability, T/C (second compound 0.1 µM, first compound 0.0316 µM): 53.8%
viability, T/C (second compound 0.1 µM, first compound 0.1 µM): 47.5%
viability, T/C (second compound 0.316 µM, first compound 0.000316 µM): 35.3%
viability, T/C (second compound 0.316 µM, first compound 0.001 µM): 31.6%
viability, T/C (second compound 0.316 µM, first compound 0.00316 µM): 33.2%
viability, T/C (second compound 0.316 µM, first compound 0.01 µM): 34.2%
viability, T/C (second compound 0.316 µM, first compound 0.0316 µM): 33%
viability, T/C (second compound 0.316 µM, first compound 0.1 µM): 21.4%
viability, T/C (second compound 1 µM, first compound 0.000316 µM): 12.2%
viability, T/C (second compound 1 µM, first compound 0.001 µM): 4.22%
viability, T/C (second compound 1 µM, first compound 0.00316 µM): 4.14%
viability, T/C (second compound 1 µM, first compound 0.01 µM): 4.53%
viability, T/C (second compound 1 µM, first compound 0.0316 µM): 6.11%
viability, T/C (second compound 1 µM, first compound 0.1 µM): 5.95%
viability, T/C (second compound 3.16 µM, first compound 0.000316 µM): 9.51%
viability, T/C (second compound 3.16 µM, first compound 0.001 µM): 3.28%
viability, T/C (second compound 3.16 µM, first compound 0.00316 µM): 6.67%
viability, T/C (second compound 3.16 µM, first compound 0.01 µM): 8.93%
viability, T/C (second compound 3.16 µM, first compound 0.0316 µM): 9.05%
viability, T/C (second compound 3.16 µM, first compound 0.1 µM): 5.6%
viability, T/C (second compound 10 µM, first compound 0.000316 µM): 7.27%
viability, T/C (second compound 10 µM, first compound 0.001 µM): 1.99%
viability, T/C (second compound 10 µM, first compound 0.00316 µM): 2.02%
viability, T/C (second compound 10 µM, first compound 0.01 µM): 9.25%
viability, T/C (second compound 10 µM, first compound 0.0316 µM): 4.57%
viability, T/C (second compound 10 µM, first compound 0.1 µM): 0.98%

O=c1[nH]cc(F)c(=O)[nH]1
viability, T/C (compound 0.0316 µM): 93.5% and 94.5%
viability, T/C (compound 0.1 µM): 103% and 97.7%
viability, T/C (compound 0.316 µM): 96% and 86.2%
viability, T/C (compound 1 µM): 82.7% and 70.5%
viability, T/C (compound 3.16 µM): 84.2% and 69.9%
viability, T/C (compound 10 µM): 68.2% and 50.6%
IC50 (curve of compound): > 10000 nM
